What all share (type): biochemical
Experiment [1] concerns the target T1, Btk (Homo sapiens, UniProt Q06187).
T1 construct: purified from insect cells as a full-length construct containing a N-terminal 6X-His tag; His6 (N); made in house; host or cells: insect cells (Method C)
Put plainly: Btk in vitro inhibitory activity (one of Method A TR-FRET, Method B electrophoretic mobility shift, Method C radiometric filter binding). The conditions noted are these: wild-type Btk; read-out: Btk-WT IC50. An outline of the steps: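 Three alternative formats were used. A radiometric filter-binding read used 8 nM full-length His-BTK with 0.2 mg/mL poly(Glu-Tyr) 4:1 (C); microfluidic separation of 1 μM FAM-peptide by 1 nM BTK gave IC50 from 12-point curves (B); TR-FRET at Km ATP, 0.5 nM Btk, gave Ki(app)-derived IC50 (A).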
For orientation: A gel shift assay detects complexes by their altered migration in electrophoresis.

The target of experiment [2] is T2, TEC (Homo sapiens, UniProt P42680).
T2 sequence (P42680 1-631): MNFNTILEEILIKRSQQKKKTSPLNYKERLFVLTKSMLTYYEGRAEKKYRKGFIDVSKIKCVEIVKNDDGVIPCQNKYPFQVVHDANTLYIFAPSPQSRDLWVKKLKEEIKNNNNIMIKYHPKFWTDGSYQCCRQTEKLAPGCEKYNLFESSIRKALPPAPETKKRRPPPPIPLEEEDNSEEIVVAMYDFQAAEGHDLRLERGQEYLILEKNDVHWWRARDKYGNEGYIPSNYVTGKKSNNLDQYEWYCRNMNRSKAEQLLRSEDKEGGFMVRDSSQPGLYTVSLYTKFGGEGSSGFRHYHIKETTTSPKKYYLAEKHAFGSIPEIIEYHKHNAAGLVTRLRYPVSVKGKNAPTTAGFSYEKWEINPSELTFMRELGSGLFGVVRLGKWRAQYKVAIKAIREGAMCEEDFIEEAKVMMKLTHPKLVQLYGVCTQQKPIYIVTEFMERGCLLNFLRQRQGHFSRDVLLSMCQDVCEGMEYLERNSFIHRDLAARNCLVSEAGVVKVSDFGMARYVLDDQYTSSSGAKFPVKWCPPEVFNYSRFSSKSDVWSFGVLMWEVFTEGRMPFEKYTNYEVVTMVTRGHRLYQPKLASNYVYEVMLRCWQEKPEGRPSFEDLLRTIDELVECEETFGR
Put plainly: Inhibition of a panel of kinases (in vitro HotSpot kinase assay, 33P-ATP, 1 μM ATP). The conditions noted are these: for IC50: HotSpot kinase assay, 1 μM ATP; for TEC/Btk: ratio of TEC IC50 to Btk IC50 (selectivity). An outline of the steps: (§1)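 Radiometric read-out: 33P transfer to a suitable substrate by each purified enzyme, ATP at 1 μM. Values are degree of inhibition.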

The target of experiment [3] is T3, panel of kinases (Homo sapiens, UniProt P51813).
T3 sequence (P51813 1-675): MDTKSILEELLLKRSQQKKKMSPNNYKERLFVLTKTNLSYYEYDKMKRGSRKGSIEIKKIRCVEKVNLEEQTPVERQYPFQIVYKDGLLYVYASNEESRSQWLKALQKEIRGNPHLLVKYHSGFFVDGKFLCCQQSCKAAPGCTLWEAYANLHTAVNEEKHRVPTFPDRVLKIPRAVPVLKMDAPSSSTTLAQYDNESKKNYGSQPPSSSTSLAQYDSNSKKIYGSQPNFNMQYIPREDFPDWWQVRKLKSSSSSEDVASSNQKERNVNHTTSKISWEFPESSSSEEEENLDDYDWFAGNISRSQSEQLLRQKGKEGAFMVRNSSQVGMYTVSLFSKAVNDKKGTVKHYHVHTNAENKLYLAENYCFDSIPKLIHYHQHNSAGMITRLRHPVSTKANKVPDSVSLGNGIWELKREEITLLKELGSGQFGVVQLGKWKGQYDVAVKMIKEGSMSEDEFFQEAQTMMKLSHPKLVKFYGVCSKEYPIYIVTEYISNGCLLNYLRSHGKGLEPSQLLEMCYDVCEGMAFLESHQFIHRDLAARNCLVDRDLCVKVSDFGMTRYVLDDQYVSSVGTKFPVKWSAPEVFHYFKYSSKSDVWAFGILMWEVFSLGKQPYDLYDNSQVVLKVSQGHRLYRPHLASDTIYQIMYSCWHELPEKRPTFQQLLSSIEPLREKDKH
Kind of experiment: Inhibition of a panel of kinases (in vitro HotSpot kinase assay, 33P-ATP, 1 μM ATP), other kinases. The conditions noted are these: BMX wild-type, read-out: BMX-WT IC50. An outline of the steps: as §1

What is called IC50 is the concentration that inhibits the measured activity by half.

T1 sequence (Q06187 whole entry): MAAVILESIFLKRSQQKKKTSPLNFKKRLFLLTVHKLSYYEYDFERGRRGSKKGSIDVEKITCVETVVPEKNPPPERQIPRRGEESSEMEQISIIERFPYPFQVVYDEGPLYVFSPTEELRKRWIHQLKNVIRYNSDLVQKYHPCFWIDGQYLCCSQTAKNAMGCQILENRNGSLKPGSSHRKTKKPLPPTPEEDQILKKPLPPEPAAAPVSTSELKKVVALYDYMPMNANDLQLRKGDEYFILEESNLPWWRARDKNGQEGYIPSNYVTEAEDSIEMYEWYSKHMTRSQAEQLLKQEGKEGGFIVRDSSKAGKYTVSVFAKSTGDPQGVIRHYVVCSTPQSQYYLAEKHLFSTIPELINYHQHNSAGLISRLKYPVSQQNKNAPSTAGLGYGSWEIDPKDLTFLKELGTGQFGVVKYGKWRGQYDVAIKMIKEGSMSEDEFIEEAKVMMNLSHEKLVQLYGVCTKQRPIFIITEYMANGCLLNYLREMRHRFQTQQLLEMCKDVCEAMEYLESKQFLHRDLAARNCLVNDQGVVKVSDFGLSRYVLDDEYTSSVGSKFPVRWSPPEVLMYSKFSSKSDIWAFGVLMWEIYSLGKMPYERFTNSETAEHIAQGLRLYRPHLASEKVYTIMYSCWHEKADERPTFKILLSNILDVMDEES

For the compound `C=CC(=O)N1CC[C@@H](Nc2n[nH]c3nccc(-c4cccc(NC(=O)c5noc(C(C)(C)C)n5)c4C)c23)C1` [Example 267, 5-tert-butyl-N-[2-methyl-3-(3-{[(3R)-1-(prop-2-enoyl)pyrrolidin-3-yl]amino}-1H-pyrazolo[3,4-b]pyridin-4-yl)phenyl]-1,2,4-oxadiazole-3-carboxamide], the IC50 is 164 nM in experiment [1], 901 nM in experiment [2] and 553 nM in experiment [3]. Further, the TEC/Btk in experiment [2] came out at 005.
The corresponding values for `C=CC(=O)N1CCC[C@@H](Nc2n[nH]c3nccc(-c4ccc(C5(NC(=O)c6noc(C(C)(C)C)n6)CC5)cc4)c23)C1` [Example 270, 5-tert-butyl-N-{1-[4-(3-{[(3R)-1-(prop-2-enoyl)piperidin-3-yl]amino}-1H-pyrazolo[3,4-b]pyridin-4-yl)phenyl]cyclopropyl}-1,2,4-oxadiazole-3-carboxamide] are 0.792 nM, 613 nM, 312 nM and 774.
For `C=CC(=O)N1CC[C@@H](Oc2n[nH]c3nccc(-c4ccc(CNC(=O)c5noc(C(C)(C)C)n5)c(F)c4)c23)C1` [Example 272, 5-tert-butyl-N-{[2-fluoro-4-(3-{[(3R)-1-(prop-2-enoyl)pyrrolidin-3-yl]oxy}-1H-pyrazolo[3,4-b]pyridin-4-yl)phenyl]methyl}-1,2,4-oxadiazole-3-carboxamide] the same measures were 0.0732 nM, 18.9 nM, 39.2 nM and 258.
For `C=CC(=O)N1CCC(Cc2n[nH]c3nccc(-c4ccc(CNC(=O)c5noc(C(C)(C)C)n5)c(F)c4)c23)C1` (centres unmarked) [Example 275, 5-tert-butyl-N-{[2-fluoro-4-(3-{[1-(prop-2-enoyl)pyrrolidin-3-yl]methyl}-1H-pyrazolo[3,4-b]pyridin-4-yl)phenyl]methyl}-1,2,4-oxadiazole-3-carboxamide], the figures for the IC50 in experiment [1], in experiment [2] and in experiment [3] were 0.559 nM, 338 nM and 158 nM, respectively. Further, in experiment [2], the TEC/Btk is 605.
For `C=CC(=O)N1CCC(c2n[nH]c3nccc(-c4ccc(CNC(=O)c5noc(C(C)(C)C)n5)c(F)c4)c23)C1` (centres unmarked) [Example 279, 5-tert-butyl-N-[(2-fluoro-4-{3-[1-(prop-2-enoyl)pyrrolidin-3-yl]-1H-pyrazolo[3,4-b]pyridin-4-yl}phenyl)methyl]-1,2,4-oxadiazole-3-carboxamide] the same measures were 0.0922 nM, 14.9 nM, 8.95 nM and 162.
On to `CC(C)(C)c1nc(C(=O)NCc2ccc(-c3ccnc4[nH]nc(C5=CCNC5)c34)cc2F)no1` [Example 280, 5-tert-butyl-N-({4-[3-(2,5-dihydro-1H-pyrrol-3-yl)-1H-pyrazolo[3,4-b]pyridin-4-yl]-2-fluorophenyl}methyl)-1,2,4-oxadiazole-3-carboxamide], for which the IC50 is 8.84 nM in experiment [1], 2150 nM in experiment [2] and 1720 nM in experiment [3]. Further, the TEC/Btk in experiment [2] worked out at 243.
Consider `C=CC(=O)N1CC=C(c2n[nH]c3nccc(-c4ccc(CNC(=O)c5noc(C(C)(C)C)n5)c(F)c4)c23)C1` [Example 281, 5-tert-butyl-N-[(2-fluoro-4-{3-[1-(prop-2-enoyl)-2,5-dihydro-1H-pyrrol-3-yl]-1H-pyrazolo[3,4-b]pyridin-4-yl}phenyl)methyl]-1,2,4-oxadiazole-3-carboxamide], for which the concentration for half-maximal inhibition (IC50) in experiment [1] is 0.0568 nM; in experiment [2], 4.92 nM; in experiment [3] it was 2.98 nM. The TEC/Btk in experiment [2] was 87.
On to `CN(C)C(=O)N1CC[C@@H](Oc2n[nH]c3nccc(-c4ccc(CNC(=O)c5noc(C(C)(C)C)n5)c(F)c4)c23)C1` [Example 282, 5-tert-butyl-N-{[4-(3-{[(3R)-1-(dimethylcarbamoyl)pyrroli-din-3-yl]oxy}-1H-pyrazolo[3,4-b]pyridin-4-yl)-2-fluorophenyl]methyl}-1,2,4-oxadiazole-3-carboxamide], for which the IC50 in experiment [1] amounted to 10.4 nM; in experiment [2], 5240 nM; in experiment [3], 6080 nM. In addition, the TEC/Btk in experiment [2] was 504.
Consider `CC(C)(C)c1noc(C(=O)NCc2ccc(-c3ccnc4[nH]nc(OC5CCNC5)c34)cc2F)n1` (centres unmarked) [Example 283, 3-tert-butyl-N-[(2-fluoro-4-{3-[(pyrrolidin-3-yl)oxy]-1H-pyrazolo[3,4-b]pyridin-4-yl}phenyl)methyl]-1,2,4-oxadiazole-5-carboxamide], for which the IC50 turned out to be 10.9 nM in experiment [1], 7160 nM in experiment [2] and 2970 nM in experiment [3].
The corresponding values for `CC(=O)N1CC[C@H](Oc2n[nH]c3nccc(-c4ccc(CNC(=O)c5nc(C(C)(C)C)no5)c(F)c4)c23)C1` [Example 284, (S)-N-[(4-{3-[(1-acetylpyrrolidin-3-yl)oxy]-1H-pyrazolo[3,4-b]pyridin-4-yl}-2-fluorophenyl)methyl]-3-tert-butyl-1,2,4-oxadiazole-5-carboxamide] are 3.19 nM, 2250 nM and 2920 nM.
The corresponding values for `C=CC(=O)N1CC[C@@H](Nc2n[nH]c3nccc(-c4ccnc(N5CCn6c(cc7c6CC(C)(C)C7)C5=O)c4C=O)c23)C1` [Example 286, (R)-2-(7,7-dimethyl-1-oxo-1,3,4,6,7,8-hexahydro-2H-cyclopenta[4,5]pyrrolo[1,2-a]pyrazin-2-yl)-4-(3-{[1-(prop-2-enoyl)pyrrolidin-3-yl]amino}-1H-pyrazolo[3,4-b]pyridin-4-yl)pyridine-3-carbaldehyde] are 482 nM, 1830 nM and 1510 nM.
For `C=CC(=O)N1CCC[C@@H](Nc2n[nH]c3nccc(-c4ccc(CNC(=O)c5cc(CC(C)C)on5)c(F)c4)c23)[C@H]1C` [Example 293, N-{[2-fluoro-4-(3-{[(2R,3R)-2-methyl-1-(prop-2-enoyl)piperidin-3-yl]amino}-1H-pyrazolo[3,4-b]pyridin-4-yl)phenyl]methyl}-5-(2-methylpropyl)-1,2-oxazole-3-carboxamide] the same measures were 1.76 nM, 59.4 nM and 46.1 nM.
For `C=CC(=O)N1CC[C@@H](Nc2n[nH]c3nccc(-c4ccc(CNC(=O)c5cc(C(C)(C)O)on5)c(F)c4)c23)C1` [Example 294, N-{[2-fluoro-4-(3-{[(3R)-1-(prop-2-enoyl)pyrrolidin-3-yl]amino}-1H-pyrazolo[3,4-b]pyridin-4-yl)phenyl]methyl}-5-(2-hydroxypropan-2-yl)-1,2-oxazole-3-carboxamide], the 50% inhibitory concentration (IC50) was found to be 1.45 nM in experiment [1], 118 nM in experiment [2] and 90 nM in experiment [3].
On to `C=CC(=O)N1CC[C@@H](Nc2n[nH]c3nccc(-c4ccc(CNC(=O)c5coc(C(C)(C)C)n5)c(F)c4)c23)C1` [Example 295, 2-tert-butyl-N-{[2-fluoro-4-(3-{[(3R)-1-(prop-2-enoyl)pyrrolidin-3-yl]amino}-1H-pyrazolo[3,4-b]pyridin-4-yl)phenyl]methyl}-1,3-oxazole-4-carboxamide], for which the IC50 worked out at 0.171 nM in experiment [1], 45.5 nM in experiment [2] and 107 nM in experiment [3].

These data come from US20180194762A1 (Pharmacyclics LLC, priority 2017, published 2018).
